Experimental data taken from patent publication EP2853565A1, “Glutamate receptor photomodulators” (Consejo Superior De Investigaciones Científicas, priority 2013, dated 2015).

Experiments:
[1] = biological target: T1, rat metabotropic glutamate receptor 5 (mGlu5) (Rattus norvegicus, UniProt P31424); experiment: Single-cell calcium imaging (Fura-2) of quisqualate-evoked calcium oscillations, with photoisomerization by 390/490 nm light; format: cell-based; conditions: 3 µM quisqualate
T1 construct: expressed in transfected cells; host or cells: HEK tsA201 cells
Procedure: Cell Culture and Transient Transfection: Human embryonic kidney (HEK) tsA201 cells were maintained at 37 °C and humidified atmosphere with 5% CO2; cells were grown in Dulbecco's Modified Eagle's Medium/Nutrient Mixture F-12 Ham (DMEM/F12, 1:1) medium, supplemented with 10% Fetal Bovine Serum (FBS) and antibiotics (1% Penicillin/Streptomycin). Once at confluence, culture flasks were washed twice with PBS and harvested with 300 µl Accutase. Expression of rat mGlu5a was induced by transient transfection of the cDNA-containing plasmid with X-tremeGENE 9 DNA Transfection Reagent. For transfection, cells were seeded at a concentration of 10^6 cells per well on 6-multiwell plates with a final volume of 2ml, and immediately transfected following manufacturer's instructions (100 µl mixture of 3:1 (µl:µg) of X-tremeGENE 9 DNA TR:mGlu5a plasmid in serum-free medium, 20 minutes incubation). About 24h after transfection, HEK tsA201 cells transiently overexpressing mGlu5a were seeded onto 15 mm glass coverslips pre-treated with Poly-L-Lysine to allow cell adhesion. Seeding concentration was maintained between 2/4·10^5 cells to get preconfluent cultures at the time of experiment. Transfected cells were used for single-cell calcium imaging experiments between 48 and 72 hours after transfection.
Single-cell Calcium Imaging: At the time of experiments, glass coverslips were mounted onto the recording chamber, and cells were loaded with the high affinity, ratiometric, intracellular calcium indicator Fura-2 AM; the dye was incubated during 30 minutes at 37°C and 5% CO2, at a final concentration of 10 µM in Ca^2+-free extracellular solution (ES, -Ca^2+). We used a ratiometric calcium sensor in order to avoid bleaching artefacts. Cells were then carefully rinsed with fresh ES, three to four times, before the recording chamber was placed on an inverted fully-motorised digital microscope (iMic 2000, Till Photonics, Gräfelfing, Germany). Images were acquired at room temperature with a UV Apochromat 40x oil objective lens (Olympus, Tokio, Japan). Fura-2 AM was excited consecutively for 10 ms at two different wavelengths (340 and 380 nm) as indicated by the manufacturer (Life Technologies, Paisley, UK) by using a Polychrome V light source (Till Photonics) and a 505 nm dichroic beamsplitter (Chroma Technology, Below Falls, VT, USA); emission at 510 nm was filtered by a D535/40nm emission filter (Chroma Technology) and finally collected by a cooled CCD camera (Interline Transfer IMAGO QE, Till Photonics). The fluorescence measurements (excitation + emission recording) were carried out every 2 seconds, and each measurement takes about 10-50 ms. The 340 and 380 nm images were stored by the TILLvisION imaging software (Till Photonics); the ratio of the emission when the sample was excited at 340 nm and the emission when it was excited at 380 nm was recorded and its mean value was calculated for each cell using the same software. Higher ratios correspond to higher intracellular calcium concentrations.
Agonists and allosteric modulators addition was obtained by carefully pipetting an initial 1:30 dilution of the compound directly into the accessory pool of the recording chamber, obtaining a final dilution of 1:1000 (total DMSO concentration was always lower than 1%). Activation of the agonist was induced in HEK tsA201 mGlu5a transfected cells with the glutamate analogue Quisqualic acid (3 µM). Only evoked, sustained intracellular calcium oscillations were taken into account as consistent cell responses to the application of the agonist; different responses (such as single-peak, peak-and-plateau, etc.), as well as spontaneously oscillating cells, were discarded as unsuitable for calculating the oscillatory frequency.
Solutions and Reagents: The extracellular solution (ES) used for single-cell calcium imaging contained: 140 mM NaCl, 5.4 mM KCI, 1 mM MgCl2, 10 mM HEPES, 10 mM glucose and 2 mM CaCl2 adjusted to pH 7.4 with NaOH. […]

[2] = UV-VIS absorption spectrum before and after irradiation; format: physicochemical; conditions: solution in DMSO, irradiation with ultraviolet light (380 nm)
[3] = Lipophilicity and solubility observed on handling (data not shown); format: physicochemical
Description: SIB-1757 (48) (Sigma Aldrich) is a moderate-affinity non-competitive antagonist of mGlu5 [J. Pharmacol. Exp. Thr., 1999, 290, 170-181]. […] However, we tested the molecule on a cell line heterogously expressing mGlu5, to ensure that the biological effect of SIB-1757 (48) on the target receptor is not light dependent. […] Moreover, we observed a high lipophilicity of the molecule, and also a low solubility, which make SIB-1757 (48) quite uneasy to handle for biological applications (not shown).

T1 sequence (P31424 21-1171 isoform P31424-2 limits assumed): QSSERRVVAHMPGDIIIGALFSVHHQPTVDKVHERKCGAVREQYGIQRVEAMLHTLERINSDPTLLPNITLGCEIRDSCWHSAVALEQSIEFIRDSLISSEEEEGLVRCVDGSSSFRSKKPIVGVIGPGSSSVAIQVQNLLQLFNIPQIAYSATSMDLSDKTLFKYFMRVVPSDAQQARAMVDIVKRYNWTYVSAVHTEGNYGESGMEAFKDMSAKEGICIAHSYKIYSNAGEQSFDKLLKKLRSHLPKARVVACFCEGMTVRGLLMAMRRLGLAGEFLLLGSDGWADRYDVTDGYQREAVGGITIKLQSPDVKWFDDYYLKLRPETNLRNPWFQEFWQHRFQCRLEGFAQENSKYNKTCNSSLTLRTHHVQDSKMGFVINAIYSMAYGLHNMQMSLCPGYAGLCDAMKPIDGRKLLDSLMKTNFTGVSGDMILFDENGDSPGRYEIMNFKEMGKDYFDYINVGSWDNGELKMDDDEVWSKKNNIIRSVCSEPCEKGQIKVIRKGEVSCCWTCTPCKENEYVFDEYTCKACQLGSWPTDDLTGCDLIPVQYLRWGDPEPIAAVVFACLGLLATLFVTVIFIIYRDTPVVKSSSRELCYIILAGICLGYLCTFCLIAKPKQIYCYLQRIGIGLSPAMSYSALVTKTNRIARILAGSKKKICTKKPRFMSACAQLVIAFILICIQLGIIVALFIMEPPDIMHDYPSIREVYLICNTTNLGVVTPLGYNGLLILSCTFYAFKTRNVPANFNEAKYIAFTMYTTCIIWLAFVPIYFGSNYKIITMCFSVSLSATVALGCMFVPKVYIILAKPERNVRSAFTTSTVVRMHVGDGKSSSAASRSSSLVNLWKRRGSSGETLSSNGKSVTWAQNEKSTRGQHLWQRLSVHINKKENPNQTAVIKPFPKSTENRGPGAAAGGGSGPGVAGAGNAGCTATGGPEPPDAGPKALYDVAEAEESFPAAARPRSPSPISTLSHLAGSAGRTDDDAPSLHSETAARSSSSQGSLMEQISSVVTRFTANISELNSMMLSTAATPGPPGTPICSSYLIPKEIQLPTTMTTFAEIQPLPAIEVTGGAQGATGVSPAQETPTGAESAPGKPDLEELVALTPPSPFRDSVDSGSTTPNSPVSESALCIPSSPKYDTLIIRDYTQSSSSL

Cc1ccc(O)c(/N=N/c2ccccc2)n1 [SIB-1757]
effect on mGlu5 response (calcium oscillations) ([1]; HEK tsA201 cells): clearly an antagonist of mGlu5 | light dependence of the activity on mGlu5 ([1]; UV (380/390 nm) and visible (500/490 nm) light): not light-dependent | photoswitch in the UV-VIS absorption spectrum [2]: did not reveal any photoswitch | lipophilicity [3]: high | solubility [3]: low
